In patent US20240358015A1, “HERBICIDAL COMPOSITIONS” (Agrematch Ltd., priority 2021, published 2024):

Columns and labels:
A. palmeri [1] = assay: Greenhouse post-emergence assay (Example 3); type: in vivo, Amaranthus palmeri; details: 4% TWEEN 20, 0.05 M Tris buffer pH 8, 0.05% Break-Thru
Description: (§1) Plant seeds were sowed in 9 cm×9 cm×10 cm flowerpots. Timing of sowing (days before treatment application) for each plant is detailed in Table 7 below. 5 flowerpots of each species were used for each treatment. Seeds were sowed in wet clay soil and then covered with about 1 cm layer of dry clay soil.
(§2) Irrigation: Irrigation was carried out using VIBRONET-UD (NETAFIM) sprinklers hanging upside down one meter above the flowerpots. Water flow capacity-50 liters per hour. Irrigation was carried out three times a day for 10 minutes.
(§3) Treatments: Table 8 presents generally the protocols of the various treatments used in these assays.
(§4) 57.6 ml of 0.05 M Tris buffer pH=8 were added to 150 mg of Compound 1 and the mixture was stirred using a magnetic stirrer. 2.4 ml of TWEEN®20 were added and the mixture was stirred using a magnetic stirrer to obtain a 4% TWEEN®20-containing solution. 30 μl of Break-Thru were added to obtain a 0.05% Break-Thru-containing solution.
(§5) 57.6 ml of 0.05 M Tris buffer pH=8 were added to 225 mg of Compound 1 and the mixture was stirred using a magnetic stirrer. 2.4 ml of TWEEN®20 were added and the mixture was stirred using a magnetic stirrer to obtain a 4% TWEEN®20-containing solution. 30 μl of Break-Thru were added to obtain a 0.05% Break-Thru-containing solution.
(§6) Plants were sprayed using a DeVreis Generation 4 Research Track Sprayer with a TEE JET nozzle 80015EVS. Spraying volume was 200 L/ha using the following sprayer parameters: • Spray speed-2 KMH • Spray length-1.50 m • Spray pressure-42 PSI
(§7) Each plant was sprayed twice, yielding a total spraying volume of 400 L/ha. Nozzle was located 55 cm above pots ground level.
(§8) A. palmeri, S. viridis and S. nigrum plants were elevated with 8 cm tray, Z. mays plants were elevated with 3 cm tray in order to achieve a similar spraying height for all plant's foliage.
(§9) Plants were scored by visual inspection of symptoms, on a scale of 0-100, where 0 represents no herbicidal activity like control plants and 100 represents the maximal herbicidal activity (i.e., total death of the plant). Each pot was scored separately. DAT=days after treatment

B. cinerea = assay: PDA plate fungicidal assay (Example 4); type: cell-based, Botrytis cinerea; details: average of two plates
Description: Compound 1 was dissolved in 0.05 M Tris buffer pH=8 to a concentration of 4 mg/ml, and then diluted with a sterile PDA solution to final concentrations of 40 and 400 μg/ml. 10 ml of each solution were poured to a 100 mm petri dish and left to cool down. A 0.5 cm diameter agar disc inoculated with 3-day old B. cinerea hypha was placed upside down in the center of each PDA plate. Each treatment contained two repeats (two plates). Plates were incubated at 21° C. for 4 days. Fungicidal activity was scored by measuring the radial growth area of the hypha. Results were recorded 2-4 days after inoculation (DAI). % growth inhibition was calculated relative to control treatment without Compound 1.

Z. mays = assay: Greenhouse post-emergence assay (Example 3); type: in vivo, Zea mays; details: 4% TWEEN 20, 0.05 M Tris buffer pH 8, 0.05% Break-Thru
Description: as §1, §2, §3, §4, §5, §6, §7, §8, §9

A. palmeri [2] = assay: Growth-chamber post-emergence assay on various weed species (Example 7); type: in vivo, Amaranthus palmeri; details: 0.05% Break-Thru, 3-4 days after application
Description: (§10) Herbicidal activity of Compound 1 was determined by post-emergence application on various weed species. 8-14 day old plants (weeds) were grown at 16 hours/8 hours day/night cycles at 30° C./25° C., respectively. Leaf stage was typically 2-6.
(§11) In each treatment, 3 pots (either 7×7 or 8×12 cm), containing about 3-6 plants each, were sprayed using a VL-SET Paasche Airbrush with a 1-1.5 ml-solution containing 0.5-1.5 mg/ml of the tested compound, which is equivalent to about 500-1500 g/ha.
(§12) Damage assessment: Herbicidal activity was assessed and scored 3-4 days after application by visual inspection of the plants in comparison to plants treated with the formulation alone (with no active ingredient) as control. Activity score is in the range of 0 to 100, where 0 represents no herbicidal activity like control plants and 100 represents the maximal herbicidal activity (i.e., total death of the plant).

L. multiflorum = assay: as above; type: in vivo, Lolium multiflorum; details: 1500 g/ha; 0.8% MIPA, 0.25% Genapol, 2% HASTEN, 0.05% Break-Thru
Description: as §10, §11, §12

[3] = 1000 g/ha (2.5 mg/ml, 400 L/ha), 1 DAT, scale 0-100
[4] = 1000 g/ha (2.5 mg/ml, 400 L/ha), 3 DAT
[5] = 1000 g/ha (2.5 mg/ml, 400 L/ha), 6 DAT
[6] = 1000 g/ha (2.5 mg/ml, 400 L/ha), 8 DAT
[7] = 1000 g/ha (2.5 mg/ml, 400 L/ha), 15 DAT
[8] = 1500 g/ha (3.75 mg/ml, 400 L/ha), 1 DAT
[9] = 1500 g/ha (3.75 mg/ml, 400 L/ha), 3 DAT
[10] = 1500 g/ha (3.75 mg/ml, 400 L/ha), 6 DAT
[11] = 1500 g/ha (3.75 mg/ml, 400 L/ha), 8 DAT
[12] = 1500 g/ha (3.75 mg/ml, 400 L/ha), 15 DAT

For `O=C(O)c1cc(O)c2c(c1)C(=O)c1cccc(O)c1C2=O` [Compound 1, Rhein], the “Score by visual inspection of symptoms (average ± standard deviation, 5 pots)” value (“Score … (average ± standard deviation, 5 pots)” for short) (A. palmeri [1]; [3]) was 22 ± 13, the “Score … (average ± standard deviation, 5 pots)” value (A. palmeri [1]; [4]) was 54 ± 11.4 and the “Score … (average ± standard deviation, 5 pots)” value (A. palmeri [1]; [5]) was 36 ± 8.9. For the same compound, the “Score … (average ± standard deviation, 5 pots)” value (A. palmeri [1]; [6]) was 34 ± 11.4, the “Score … (average ± standard deviation, 5 pots)” value (A. palmeri [1]; [7]) was 20 ± 15.8 and the “Score … (average ± standard deviation, 5 pots)” value (A. palmeri [1]; [8]) was 38 ± 29.5. For the same compound, the “Score … (average ± standard deviation, 5 pots)” value (A. palmeri [1]; [9]) was 90 ± 9.4, the “Score … (average ± standard deviation, 5 pots)” value (A. palmeri [1]; [10]) was 87 ± 9.7 and the “Score … (average ± standard deviation, 5 pots)” value (A. palmeri [1]; [11]) was 83 ± 14. The “Score … (average ± standard deviation, 5 pots)” value (A. palmeri [1]; [12]) was 66 ± 29.7, the “% growth inhibition (radial growth area of the hypha, relative to control)” value (B. cinerea; 40 μg/ml in PDA, 2 DAI) was 61% and the “% growth inhibition (radial growth area of the hypha, relative to control)” value (B. cinerea; 40 μg/ml in PDA, 3 DAI) was 82%. For the same compound, the “% growth inhibition (radial growth area of the hypha, relative to control)” value (B. cinerea; 40 μg/ml in PDA, 4 DAI) was 86%, the “% growth inhibition (radial growth area of the hypha, relative to control)” value (B. cinerea; 400 μg/ml in PDA, 2 DAI) was 82% and the “% growth inhibition (radial growth area of the hypha, relative to control)” value (B. cinerea; 400 μg/ml in PDA, 3 DAI) was 88%. The “% growth inhibition (radial growth area of the hypha, relative to control)” value (B. cinerea; 400 μg/ml in PDA, 4 DAI) was 83%, the “Score … (average ± standard deviation, 5 pots)” value (Z. mays; [3]) was 0 ± 0 and the “Score … (average ± standard deviation, 5 pots)” value (Z. mays; [4]) was 30 ± 0. For the same compound, the “Score … (average ± standard deviation, 5 pots)” value (Z. mays; [5]) was 20 ± 0, the “Score … (average ± standard deviation, 5 pots)” value (Z. mays; [6]) was 22 ± 4.5 and the “Score … (average ± standard deviation, 5 pots)” value (Z. mays; [7]) was 10 ± 0. The “Score … (average ± standard deviation, 5 pots)” value (Z. mays; [8]) was 0 ± 0, the “Score … (average ± standard deviation, 5 pots)” value (Z. mays; [9]) was 30 ± 0 and the “Score … (average ± standard deviation, 5 pots)” value (Z. mays; [10]) was 30 ± 0. The “Score … (average ± standard deviation, 5 pots)” value (Z. mays; [11]) was 28 ± 4.5, the “Score … (average ± standard deviation, 5 pots)” value (Z. mays; [12]) was 20 ± 0 and the Herbicidal activity score (A. palmeri [2]; 500 g/ha, 0.8% MIPA, 0.25% Genapol, 1% AGNIQUE, 0.05% Ca-LAS, 0.02% BSU, scale 0-100) was 100. It also gave a Herbicidal activity score (A. palmeri [2]; 750 g/ha, 0.2% MIPA, 2% TWEEN20, 1% AGNIQUE, 0.05% Ca-LAS, 0.02% BSU) of 100, a Herbicidal activity score (A. palmeri [2]; 1500 g/ha, 0.8% MIPA, 0.25% Genapol, 2% HASTEN) of 100 and a Herbicidal activity score (L. multiflorum) of 50.
